# Counter-ions that a name gives are not always drawn.
# Assays:
# [1] = test system: primary neurons; assay: Mitochondrial morphology and neurite area after functional modulators; type: cell-based, mouse; parameters: key to Neurite Area: non-significant (n.s.); conditions: for axonal mitochondrial circularity / neuritic area: after 48 h of treatment; for Mitochondrial Morphology / Neurite Area: significant change
# Protocol: Mitochondrial morphology and neurite area measurements. Mitochondrial morphology and neurite area were quantified using methods described by Varkuti et al, 2020. Briefly, Cre-dependent mitochondrial targeted GFP2 (mito-GFP) ROSA26 knock-in mice were crossed with Ai14 (007908, The Jackson Laboratory) expressing cytosolic-tdTomato, and the forebrain of P0 pups were isolated and primary neurons were cultured as described above. AAV9 virus containing the iCRE sequence driven by the neuron specific CaMKII promoter was added to the cell culture at plating and 75% of the media replaced 4 h after plating. […] Z-projected images of the green channel were preprocessed (background subtraction: rolling ball, radius=3; median filtering: radius=1) and somatic mitochondria were removed (see details in Varkuti et al, Science Advances 6 (2020) eaaw8702). Red channel images were also preprocessed (tubeness filter, soma removal). Preprocessed images were segmented by GE Developer software (object-based, kernel size: 3). […] The length and circularity measurements for mitochondria were aggregated using the median and the area for neurites using the sum. After removing empty fields and outlier values from the fields, aggregated field values were averaged to well values (4 fields/well, 12 wells/compound). Robust Z-scores were calculated using DMSO-treated wells for each well ((mediancompound−medianDMSO)/median absolute deviationDMSO), well values were averaged for each compound.
# A high-content assay was developed in parallel to monitor aspects of mitochondrial dynamics in primary cultured neurons that conditionally express (Cre recombinase dependent) mitochondrial-tagged GFP and cytosolic tdTomato reporters (Varkuti et al., 2020). We monitored two aspects of neuritic mitochondrial dynamics: (1) the health of mitochondria as measured by the average circularity of axonal mitochondria, since defective mitochondria targeted for mitophagy become circular in shape, and (2) the balance between fission/fusion measured by the average length of dendritic mitochondria. […] FIG. 19A illustrates the results of surveying a collection of functional modulators selected from 5 different structural clusters (FIG. 17), quantified as robust z-scores relative to DMSO-treated control neurons.
# [2] = test system: primary neurons; assay: Oxygen consumption rate (OCR) of permeabilized primary neurons; type: cell-based, mouse
# Protocol: The oxygen consumption rate (OCR) of permeabilized neurons and isolated brain mitochondria (from 9-month old mice) was measured by the XF96 Extracellular Flux analyzer (Seahorse Bioscience). […] Prior to the start of the OCR measurement, all but 30 μl of Neurobasal A/B27 culture medium was removed from each well. Cells were washed twice with pre-warmed MAS-BSA assay medium (4 mg/ml fatty-acid free BSA, pH=7.2) and incubated in 180 μl at 37° C. for 5 min. Following the cartridge calibration, cells were loaded into the XF96 Extracellular Flux analyzer and further equilibrated for 10 min with two cycles of 3 min mixing and 2 min resting prior to the first measurement of basal respiration. OCR were measured at 37° C. under basal conditions followed by the sequential injection of pre-warmed 10× mitochondrial substrates/ADP (20 μl), oligomycin (22 μl), FCCP (24 μl), and rotenone/antimycin A (26 μl). The final concentrations of injected compounds were as follows: 10 mM mitochondrial substrates (pyruvate/malate or succinate), 1 mM ADP, 1.5 μM oligomycin, 3 μM FCCP, 2 μM rotenone/antimycin A. Saponin (25 μg/ml) was co-injected with substrate/ADP to permeabilize the cells and stimulate ADP-dependent respiration. Two baseline measurements were obtained prior to any injection and 2 response measurements were collected after each injection except for after FCCP addition which consisted of 1 measurement (9 total measurements in each assay). Each measurement cycle consisted of 2 min mixing, 2 min waiting, and 3 min data acquisition. This protocol allowed for sequential assessment of basal cell respiration, maximal mitochondrial respiratory capacity (State 3 with substrate/ADP), proton leak (State 4o with oligomycin), uncoupled maximal respiration (State 3U with FCCP) and non-mitochondrial respiration with the Complex I/Complex III inhibitors, rotenone/antimycin A. Cells were washed twice with MAS buffer to remove residue BSA contained in the assay medium, lysed in 50 μl lysis buffer (25 mM HEPES, 1 mM EGTA, 1 mM EDTA, 0.1% SDS, 1% NP-40, 1× protease and phosphatase inhibitor, pH 7.0 adjusted with NaOH) and total protein was determined by BCA assay. Oxygen consumption was normalized to total protein content as pmol O2/min/ug total protein.
# Oxygen consumption rate (OCR) or extracellular acidification rate (ECAR) measurements from permeabilized neurons and isolated brain mitochondria were performed using the XF96 Extracellular Flux analyzer (Seahorse Bioscience). For assays using cultured neurons, primary neurons were dissociated from the forebrains of P0 pups, seeded at 1.9×10^4/well (PDL-coated XF96 plate), cultured to DIV13 and incubated with selected compounds or DMSO (0.1%) for 24 h. Prior to the start of the OCR measurement, all but 30 μl of Neurobasal A/B27 culture medium was removed from each well. Cells were washed twice with pre-warmed MAS-BSA assay medium (70 mM sucrose, 220 mM mannitol, 10 mM KH2PO4, 5 mM MgCl2, 2 mM HEPES and 1 mM EGTA, 4 mg/ml fatty-acid free BSA, pH=7.2 adjusted using KOH) and incubated in 180 ul MAS-BSA medium at 37° C. in a CO2-free incubator for 5 m. […] OCR and ECAR were measured at 37° C. under basal conditions followed by the sequential injection of pre-warmed 10× mitochondrial substrates/ADP (20 μl), oligomycin (22 μl), FCCP (24 μl), and rotenone/antimycin A (26 μl).
# [3] = test system: hippocampal neurons; assay: Spontaneous excitatory postsynaptic currents (sEPSC), whole-cell patch-clamp; type: cell-based, mouse; conditions: 12.5 μM, 24 hr, DIV8
# Protocol: Spontaneous excitatory postsynaptic currents in hippocampal neurons. […] The cultures were treated with selected compounds or 0.1% DMSO for 24 hr before measuring spontaneous excitatory postsynaptic currents (sEPSCs). Whole-cell patch-clamp recordings were performed using an Axon Multiclamp 700b amplifier, 1440A Digidata digitizer and data acquisition using pClamp software (Axon Instruments, Foster City, Calif.). The neurons were first recorded in a current clamp mode to monitor cell health. Only neurons with a resting membrane potential of less than −40 mV were used for further analysis. sEPSC recordings were made at 50 kHz and subsequently filtered at 5 kHz. The membrane potential was held at −70 mV during the recording. […] Once a neuron was patched, its seal was monitored, and if the transient resistance was less than […], the recording was not used for analysis. All experiments were performed at room temperature. The frequency and amplitude of sEPSCs were analyzed using the template match search (pClamp) and measured as a percentage of baseline level, calculated from the average of a 5 min baseline recording. The values of the amplitude and frequency of EPSCs for each recording was reported as an average from a 5 min recording period.
# [4] = test system: primary neurons; conditions: 75 μM peroxide, 12.5 μM compound, 48 h
# [5] = test system: primary neurons; assay: CellTiter-Glo luminescence-based ATP assay; type: cell-based, mouse; conditions: for ATP: ATP orthogonal screen, 24 h; for EC50 / Emax: Mus musculus, Primary neuron, dose response; for EC50: 15 concentrations from 6 nM to 100 uM; for Emax: maximal percent increase relative to in-plate DMSO controls, read-out: ATP (Effect-size)
# In short: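 Primary neurons treated from DIV13 for 24 h with compound or DMSO. After part of the medium was removed, CellTiter-Glo reagent was added; plates were shaken 10 min at 200 rpm, kept 2 min in the dark at room temperature, and luminescence read as total ATP.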
# [6] = test system: Drosophila model for AD; assay: Drosophila model for AD: neuronal mitochondrial morphology; type: in vivo; conditions: cell bodies of neurons; 100 micromolar, 15 days-of-age
# From the text: To assay representative compounds in this example, we employed a Drosophila model for AD (X. Wang et al., Mol. Neurobiol. […] Flies expressing this toxic protein show: […] Drugs that show efficacy therefore: enlarge neuronal mitochondria (increased volume, increased surface area, increased length), reduce sphericity, and reduce the number of mitochondria compared to untreated Alzheimer's flies. The AD model flies were collected immediately after eclosion from the pupal case and transferred to food that was laced with drug at 100 micromolar concentration. The flies were aged to 15 days-of-age: this is when the mitochondrial pathology is very robust. We compared the morphology of mitochondria collected from these flies treated with drug and compared them to the mitochondria of flies that remained untreated.
Compound,axonal mitochondrial circularity [1],neuritic area [1],Mitochondrial Morphology [1],Neurite Area [1],"State 3 and 3u respiration stimulated by either Complex I or Complex II substrates ([2]; 10 μM, 24 h, cultured neurons)","OCR ([2]; oxygen consumption rate, significant change)",sEPSC frequency and amplitude [3],protection from peroxide (PO) induced mitochondrial fragmentation [4],ATP [5],EC50 [5],Emax [5],ATP production in neurons ([5]; after 24 hr of treatment),"Surface area of mitochondria, p (treated vs untreated) [6]"
CCCCOc1ccc(C(=O)CCN2CCCCC2)cc1 [DYCLONINE HYDROCHLORIDE],robust effects,increase,elongated,increased,significant increase,increased,increasing both frequency and amplitude,fully protected,7.04 Z-scores,140 nM,20.7%,increased,
COC(=O)[C@@H]1[C@H]2C[C@H]3c4[nH]c5ccccc5c4CCN3C[C@@H]2CC[C@@H]1O [YOHIMBINE HYDROCHLORIDE],robust effects,increase,elongated,increased,,,,,3.11 Z-scores,270 nM,23.6%,,
O=c1c(-c2ccc(O)cc2)coc2cc(O)cc(O)c12 [GENISTEIN],,,elongated,n.s.,,,,,5.96 Z-scores,3000 nM,20.6%,,p = 0.083

# — patent US20230003721A1, “MITOTHERAPEUTICS FOR THE TREATMENT OF BRAIN DISORDERS” (The University of Florida Research Foundation, Inc., priority 2019, published 2023)
